Results as given in patent US20090196912A1, “Pyridinylamines” (GPC Botech AG, priority 2004, published 2009).

Experiments:
Experiment in all cases: Generic kinase assay (33P-ATP, Myelin Basic Protein)
Format in all cases: biochemical
Abl = Abl (Homo sapiens, UniProt P00519); details: 1 h; class symbol: % inhibition at 10 μM or IC50; read-out: Inhibitory effect on target Abl
Protocol: (§1) In order to determine the inhibitory effect of the compounds of the subject invention on various target enzymes a generic kinase assay was established.
(§2) Reactions were performed in 96-Well U-bottom microtiter plates (Greiner Bio-One; Frickenhausen/Germany, Cat. No. 650161), hereinafter designated “Assay Plates”. 10 μl of a solution comprising 40 μM Myelin Basic Protein (Invitrogen; Carlsbad, Calif./USA; Cat. No. 13228-010) and 4 μM ATP in three-fold concentrated Reaction Buffer (60 mM Tris-HCl, pH 7.5; 30 mM MgCl2; 3 mM dithiothreitol) were added into each well of the Assay Plate. 10 μl of serial dilutions of the compounds of the subject invention, dissolved in 4% DMSO, were then added into each well, except for Positive Control. Wells (C+ wells) and Negative Control Wells (C− wells). 10 μl of 4% DMSO without compounds were added to C+ and C− wells. 10 μl of a 500 mM solution of EDTA in water was then added to C− wells. Then 10 μl of a solution containing 50 μCi/ml Adenosine 5′-[γ-^33P]triphosphate in water was added to each well. To start the reaction 10 μl of the kinase to be assayed was added to each well. The optimal amount of kinase in the assay was determined to be the amount which yields to a turn-over of about 10% of ATP. Assay Plates were incubated for one hour at room temperature. Then 10 μl of a 500 mM solution of EDTA in water was added to each well except C− wells. Samples were now ready for measurement.
(§3) Measurements were preformed in 96-Well MAPH-Filter Plates (Millipore; Billerica, Mass./United States; Cat. No. MAPHNOB50), hereinafter designated “Measurement Plates”. Measurement Plates were washed with 200 μl of a 0.75% H3PO4 solution per well. The H3PO4 solution was exhausted using a Millipore vacuum station. 60 μl of a 0.75% H3PO4 solution was then added into each well, followed by the transfer of 30 μl of each well from the Assay Plate into the corresponding wells of the Measurement Plate. The Measurement Plate was incubated for 30 minutes at room temperature. Thereafter each well was washed three times with 200 μl of a 0.75% H3PO4 solution using a Millipore vacuum station. 20 μl of scintillation liquid (Supermix Liquid Szintillator; Perkin Elmer, Wellesley. Mass./United States; Cat. No. 1200-439) was then added to each well of the Measurement Plate. The plate was sealed and stored for 30 minutes in the darkness before radioactivity was quantified in a MicroBeta Scintillation Counter (Perkin Elmer, Wellesley. Mass./United States).

EGFR = EGFR (Homo sapiens, UniProt P00533); details: class symbol: % inhibition at 10 μM or IC50
Protocol: as §1, §2, §3

PDGFR = details: class symbol: % inhibition at 10 μM or IC50
Protocol: as §1, §2, §3

RICK = RICK (Homo sapiens, UniProt O43353); details: class symbol: % inhibition at 10 μM or IC50
Protocol: as §1, §2, §3

c-kit = c-kit (Homo sapiens, UniProt P10721); details: 1 h; class symbol: % inhibition at 10 μM or IC50; read-out: Inhibitory effect on target c-kit
Protocol: as §1, §2, §3

p56Lck = p56Lck (Homo sapiens, UniProt P06239); details: class symbol: % inhibition at 10 μM or IC50; for inhibition at 10 µM: 1 h, read-out: Inhibitory effect on target p56Lck
Protocol: as §1, §2, §3

cRaf = cRaf (Homo sapiens, UniProt P04049); details: class symbol: % inhibition at 10 μM or IC50; for inhibition at 10 µM: 1 h, read-out: Inhibitory effect on target cRaf
Protocol: as §1, §2, §3

Abl, sequence (P00519 whole entry, species assumed): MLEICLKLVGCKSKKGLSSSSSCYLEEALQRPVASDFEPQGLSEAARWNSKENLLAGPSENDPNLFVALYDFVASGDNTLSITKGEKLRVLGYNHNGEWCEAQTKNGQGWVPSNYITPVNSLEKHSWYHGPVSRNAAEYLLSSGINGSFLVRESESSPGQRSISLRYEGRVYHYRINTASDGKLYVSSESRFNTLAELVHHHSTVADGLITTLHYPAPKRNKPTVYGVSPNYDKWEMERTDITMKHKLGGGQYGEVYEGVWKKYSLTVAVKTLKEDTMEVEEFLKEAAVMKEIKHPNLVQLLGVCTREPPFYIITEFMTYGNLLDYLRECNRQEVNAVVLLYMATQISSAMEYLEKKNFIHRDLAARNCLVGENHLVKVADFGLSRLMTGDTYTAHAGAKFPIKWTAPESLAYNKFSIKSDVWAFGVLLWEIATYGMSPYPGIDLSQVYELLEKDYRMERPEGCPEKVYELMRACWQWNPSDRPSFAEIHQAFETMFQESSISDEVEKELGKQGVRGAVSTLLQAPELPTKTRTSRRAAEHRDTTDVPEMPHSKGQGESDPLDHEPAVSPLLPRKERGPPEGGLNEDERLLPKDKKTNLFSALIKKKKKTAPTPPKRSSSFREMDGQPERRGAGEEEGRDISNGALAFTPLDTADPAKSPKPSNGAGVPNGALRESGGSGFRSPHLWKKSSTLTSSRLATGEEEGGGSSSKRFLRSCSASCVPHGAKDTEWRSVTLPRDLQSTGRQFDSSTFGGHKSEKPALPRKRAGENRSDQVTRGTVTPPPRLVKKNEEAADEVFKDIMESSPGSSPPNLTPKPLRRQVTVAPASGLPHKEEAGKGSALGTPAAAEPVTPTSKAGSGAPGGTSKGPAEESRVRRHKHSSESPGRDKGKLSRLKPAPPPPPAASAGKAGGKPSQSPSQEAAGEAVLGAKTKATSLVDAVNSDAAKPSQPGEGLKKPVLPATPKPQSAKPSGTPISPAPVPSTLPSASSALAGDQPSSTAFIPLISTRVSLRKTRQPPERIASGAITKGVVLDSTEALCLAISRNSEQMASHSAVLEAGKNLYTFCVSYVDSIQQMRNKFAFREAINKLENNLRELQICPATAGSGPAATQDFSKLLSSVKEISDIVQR
EGFR, sequence (P00533 25-1210, species assumed): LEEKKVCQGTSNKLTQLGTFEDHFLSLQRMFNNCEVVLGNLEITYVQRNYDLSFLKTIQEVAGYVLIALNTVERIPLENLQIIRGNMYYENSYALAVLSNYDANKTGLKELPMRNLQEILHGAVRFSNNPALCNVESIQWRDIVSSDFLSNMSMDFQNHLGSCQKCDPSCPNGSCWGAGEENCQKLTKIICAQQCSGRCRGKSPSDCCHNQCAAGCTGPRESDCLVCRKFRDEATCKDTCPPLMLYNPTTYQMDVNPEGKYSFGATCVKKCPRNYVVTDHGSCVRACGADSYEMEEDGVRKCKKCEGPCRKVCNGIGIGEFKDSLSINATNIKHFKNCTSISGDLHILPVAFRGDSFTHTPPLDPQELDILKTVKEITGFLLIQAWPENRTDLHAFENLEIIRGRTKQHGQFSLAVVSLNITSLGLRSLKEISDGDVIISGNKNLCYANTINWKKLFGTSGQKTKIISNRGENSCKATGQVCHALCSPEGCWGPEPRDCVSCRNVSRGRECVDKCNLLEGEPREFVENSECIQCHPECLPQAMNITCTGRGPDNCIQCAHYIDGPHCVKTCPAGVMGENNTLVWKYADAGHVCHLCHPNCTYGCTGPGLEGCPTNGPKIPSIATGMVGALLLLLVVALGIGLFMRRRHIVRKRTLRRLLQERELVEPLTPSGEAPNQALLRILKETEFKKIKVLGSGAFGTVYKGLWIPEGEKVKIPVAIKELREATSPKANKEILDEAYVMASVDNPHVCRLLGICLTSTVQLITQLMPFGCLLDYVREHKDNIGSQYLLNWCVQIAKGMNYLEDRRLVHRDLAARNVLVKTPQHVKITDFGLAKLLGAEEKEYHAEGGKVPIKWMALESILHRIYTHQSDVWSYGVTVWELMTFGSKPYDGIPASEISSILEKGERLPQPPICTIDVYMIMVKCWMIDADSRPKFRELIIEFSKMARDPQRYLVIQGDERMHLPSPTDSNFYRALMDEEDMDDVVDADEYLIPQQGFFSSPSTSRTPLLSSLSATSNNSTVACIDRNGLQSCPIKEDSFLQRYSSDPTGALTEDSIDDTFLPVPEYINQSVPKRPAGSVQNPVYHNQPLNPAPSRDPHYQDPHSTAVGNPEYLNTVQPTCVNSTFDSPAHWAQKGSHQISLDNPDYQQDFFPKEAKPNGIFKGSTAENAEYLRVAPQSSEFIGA
cRaf, sequence (P04049 whole entry, species assumed): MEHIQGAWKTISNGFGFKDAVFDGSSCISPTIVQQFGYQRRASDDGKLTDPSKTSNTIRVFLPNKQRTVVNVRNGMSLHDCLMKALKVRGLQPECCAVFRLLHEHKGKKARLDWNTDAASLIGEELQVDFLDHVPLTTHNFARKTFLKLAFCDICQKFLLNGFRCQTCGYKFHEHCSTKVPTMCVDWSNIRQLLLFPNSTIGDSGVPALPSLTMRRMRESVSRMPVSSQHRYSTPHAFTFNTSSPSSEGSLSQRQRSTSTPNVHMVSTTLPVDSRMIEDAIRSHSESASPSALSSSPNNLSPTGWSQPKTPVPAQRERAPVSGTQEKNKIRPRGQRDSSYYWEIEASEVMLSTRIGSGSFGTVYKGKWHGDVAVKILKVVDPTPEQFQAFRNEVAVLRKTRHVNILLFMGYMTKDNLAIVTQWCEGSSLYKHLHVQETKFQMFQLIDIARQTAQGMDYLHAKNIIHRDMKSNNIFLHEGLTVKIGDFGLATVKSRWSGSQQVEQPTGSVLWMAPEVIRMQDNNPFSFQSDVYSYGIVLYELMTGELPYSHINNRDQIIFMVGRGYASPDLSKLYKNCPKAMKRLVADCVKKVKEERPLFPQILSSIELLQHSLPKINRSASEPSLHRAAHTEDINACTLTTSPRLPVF
c-kit, sequence (P10721 26-976): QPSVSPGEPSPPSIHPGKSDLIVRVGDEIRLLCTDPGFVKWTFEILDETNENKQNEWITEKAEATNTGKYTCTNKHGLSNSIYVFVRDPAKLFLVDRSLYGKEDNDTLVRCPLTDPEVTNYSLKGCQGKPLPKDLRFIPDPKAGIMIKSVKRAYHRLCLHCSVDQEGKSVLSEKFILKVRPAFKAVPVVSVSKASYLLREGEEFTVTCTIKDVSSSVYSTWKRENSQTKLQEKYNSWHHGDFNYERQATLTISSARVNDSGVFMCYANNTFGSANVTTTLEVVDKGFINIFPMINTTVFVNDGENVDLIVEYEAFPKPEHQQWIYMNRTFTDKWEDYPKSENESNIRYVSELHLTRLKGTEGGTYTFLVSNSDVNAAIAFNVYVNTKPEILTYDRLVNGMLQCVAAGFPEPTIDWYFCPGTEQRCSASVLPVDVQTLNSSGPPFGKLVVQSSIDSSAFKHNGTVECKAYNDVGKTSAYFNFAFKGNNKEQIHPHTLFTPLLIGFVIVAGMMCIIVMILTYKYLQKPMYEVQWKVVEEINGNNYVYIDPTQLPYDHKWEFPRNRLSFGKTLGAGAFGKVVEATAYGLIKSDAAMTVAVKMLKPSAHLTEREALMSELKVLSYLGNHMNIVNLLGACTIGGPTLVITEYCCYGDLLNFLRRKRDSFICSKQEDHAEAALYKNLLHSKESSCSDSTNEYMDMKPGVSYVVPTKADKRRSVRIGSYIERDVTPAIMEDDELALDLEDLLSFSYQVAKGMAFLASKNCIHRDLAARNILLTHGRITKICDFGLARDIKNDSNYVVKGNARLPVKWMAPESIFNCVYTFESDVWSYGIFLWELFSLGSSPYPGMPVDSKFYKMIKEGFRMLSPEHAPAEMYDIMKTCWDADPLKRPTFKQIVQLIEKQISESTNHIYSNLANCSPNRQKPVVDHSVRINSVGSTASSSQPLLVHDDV
RICK, sequence (O43353 whole entry, species assumed): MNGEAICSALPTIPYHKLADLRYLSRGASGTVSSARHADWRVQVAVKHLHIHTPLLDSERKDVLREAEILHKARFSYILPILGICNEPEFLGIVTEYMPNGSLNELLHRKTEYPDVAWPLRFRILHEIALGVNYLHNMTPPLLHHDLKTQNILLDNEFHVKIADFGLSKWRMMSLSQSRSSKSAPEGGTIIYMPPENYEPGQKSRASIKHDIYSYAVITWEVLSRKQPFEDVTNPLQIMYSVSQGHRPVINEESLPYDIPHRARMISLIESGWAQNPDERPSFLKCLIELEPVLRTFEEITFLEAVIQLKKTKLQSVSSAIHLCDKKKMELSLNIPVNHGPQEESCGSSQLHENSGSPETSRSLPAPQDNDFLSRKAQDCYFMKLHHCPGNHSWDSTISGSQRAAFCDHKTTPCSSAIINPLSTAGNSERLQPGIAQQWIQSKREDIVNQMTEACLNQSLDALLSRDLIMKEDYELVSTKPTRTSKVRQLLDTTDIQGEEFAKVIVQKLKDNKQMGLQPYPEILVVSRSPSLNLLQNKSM
p56Lck, sequence (P06239 whole entry, species assumed): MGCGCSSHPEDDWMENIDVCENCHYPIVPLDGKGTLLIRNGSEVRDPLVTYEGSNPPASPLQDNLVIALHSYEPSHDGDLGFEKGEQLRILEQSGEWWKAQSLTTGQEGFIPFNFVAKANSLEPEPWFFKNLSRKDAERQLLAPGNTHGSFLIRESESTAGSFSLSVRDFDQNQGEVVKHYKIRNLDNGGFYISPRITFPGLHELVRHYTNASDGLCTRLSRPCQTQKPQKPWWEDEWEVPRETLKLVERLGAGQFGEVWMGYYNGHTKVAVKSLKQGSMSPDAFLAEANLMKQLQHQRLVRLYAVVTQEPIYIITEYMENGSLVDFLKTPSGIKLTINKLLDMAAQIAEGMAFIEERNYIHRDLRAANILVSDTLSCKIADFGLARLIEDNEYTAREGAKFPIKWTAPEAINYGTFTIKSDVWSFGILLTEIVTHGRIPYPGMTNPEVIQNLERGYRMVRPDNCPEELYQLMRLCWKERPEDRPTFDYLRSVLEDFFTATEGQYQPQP

Row | Structure (SMILES) | inhibition at 10 µM (Abl) [%] | Inhibitory effect on target EGFR (EGFR) | Inhibitory effect on target PDGFR (PDGFR) | Inhibitory effect on target RICK (RICK) | inhibition at 10 µM (c-kit) [%] | inhibition at 10 µM (p56Lck) [%] | inhibition at 10 µM (cRaf) [%] | Inhibitory effect on target p56Lck (p56Lck) | Inhibitory effect on target cRaf (cRaf)
1 | Oc1cccc(CNc2cncc(-c3cccnc3)c2)c1 [Compound 159, 3-([3,3′]Bipyridinyl-5-ylaminomethyl)-phenol] | 50 to 90 | A (A: 50-90% inhibition at 10 μM enzyme concentration) | A (A: 50-90% inhibition at 10 μM enzyme concentration) | C (C: IC50 measured: <1 μM) | 50 to 90 | 50 to 90 |  |  | 
2 | CC(=O)Nc1cccc(-c2cncc(Nc3ccccc3)c2)c1 [Compound 194, N-[3-(5-Phenylamino-pyridin-3-yl)-phenyl]-acetamide] |  |  | A (A: 50-90% inhibition at 10 μM enzyme concentration) | C (C: IC50 measured: <1 μM) | 50 to 90 |  |  |  | 
3 | Oc1cccc(CNc2cncc(-c3cncnc3)c2)c1 [Compound 195, 3-[(5-Pyrimidin-5-yl-pyridin-3-ylamino)-methyl]-phenol] |  |  |  | C (C: IC50 measured: <1 μM) | 50 to 90 | 50 to 90 | 50 to 90 |  | 
4 | CS(=O)(=O)c1ccc(-c2cncc(NCc3cccc(O)c3)c2)cc1 [Compound 206, 3-{[5-(4-Methanesulfonyl-phenyl)-pyridin-3-ylamino]-methyl}-phenol] |  |  |  | C (C: IC50 measured: <1 μM) | 50 to 90 | 50 to 90 |  |  | 
5 | COc1ccc(-c2cncc(NCc3cccc(O)c3)c2)cn1 [Compound 207, S—K6′-Methoxy-fS.S′lbipyridinyl-δ-ylaminoJ-mθthyll-phenol] |  |  |  | C (C: IC50 measured: <1 μM) |  |  |  | A (A: 50-90% inhibition at 10 μM enzyme concentration) | 
6 | OCc1cccc(-c2cncc(NCc3cccc(O)c3)c2)c1 [Compound 216, 3-{[5-(3-Hydroxymethyl-phenyl)-pyridin-3-ylamino]-methyl}-phenol] | 50 to 90 | A (A: 50-90% inhibition at 10 μM enzyme concentration) | A (A: 50-90% inhibition at 10 μM enzyme concentration) | C (C: IC50 measured: <1 μM) | > 90 | 50 to 90 | 50 to 90 |  | 
7 | O=C(NCCO)c1cccc(-c2cncc(NCc3cccc(O)c3)c2)c1 [Compound 217, 3-[5-(3-Hydroxy-benzylamino)-pyridin-3-yl]-N-(2-hydroxy-ethyl)-benzamide] | 50 to 90 | A (A: 50-90% inhibition at 10 μM enzyme concentration) | A (A: 50-90% inhibition at 10 μM enzyme concentration) | C (C: IC50 measured: <1 μM) | > 90 | > 90 |  |  | 
8 | Oc1cccc(CNc2cncc(-c3ccc(N4CCOCC4)cc3)c2)c1 [Compound 218, 3-{[5-(4-Morpholin-4-yl-phenyl)-pyridin-3-ylamino]-methyl}-phenol] |  | A (A: 50-90% inhibition at 10 μM enzyme concentration) | A (A: 50-90% inhibition at 10 μM enzyme concentration) | C (C: IC50 measured: <1 μM) | > 90 | 50 to 90 |  |  | 
9 | COc1cncc(-c2cncc(NCc3cccc(O)c3)c2)c1 [Compound 222, 3-[(5′-Methoxy-[3,3′]bipyridinyl-5-ylamino)-methyl]-phenol] | 50 to 90 |  | A (A: 50-90% inhibition at 10 μM enzyme concentration) | C (C: IC50 measured: <1 μM) | 50 to 90 | 50 to 90 |  |  | 
10 | COc1ccc(-c2cncc(NCc3cccc(O)c3)c2)cc1OC [Compound 223, 3-{[5-(3,4-Dimethoxy-phenyl)-pyridin-3-ylamino]-methyl}-phenol] | 50 to 90 | A (A: 50-90% inhibition at 10 μM enzyme concentration) | A (A: 50-90% inhibition at 10 μM enzyme concentration) | C (C: IC50 measured: <1 μM) | > 90 | 50 to 90 | 50 to 90 |  | 
11 | CN(C)CCNC(=O)c1cccc(-c2cncc(NCc3cccc(O)c3)c2)c1 [Compound 224, N-(2-Dimethylamino-ethyl)-3-[5-(3-hydroxy-benzylamino)-pyridin-3-yl]-benzamide] | 50 to 90 | A (A: 50-90% inhibition at 10 μM enzyme concentration) | A (A: 50-90% inhibition at 10 μM enzyme concentration) | C (C: IC50 measured: <1 μM) | 50 to 90 | 50 to 90 |  |  | 
12 | CS(=O)(=O)Nc1cccc(-c2cncc(NCc3cccc(O)c3)c2)c1 [Compound 226, N-{3-[5-(3-Hydroxy-benzylamino)-pyridin-3-yl]-phenyl}-methanesulfonamide] | 50 to 90 | A (A: 50-90% inhibition at 10 μM enzyme concentration) | A (A: 50-90% inhibition at 10 μM enzyme concentration) | C (C: IC50 measured: <1 μM) | > 90 | 50 to 90 |  |  | 
13 | COc1ccc(Nc2cncc(-c3cccc(NC(C)=O)c3)c2)cc1 [Compound 227, N-{3-[5-(4-Methoxy-phenylamino)-pyridin-3-yl]-phenyl}-acetamide] |  |  | A (A: 50-90% inhibition at 10 μM enzyme concentration) | C (C: IC50 measured: <1 μM) | 50 to 90 |  |  |  | 
14 | Oc1cccc(CNc2cncc(-c3ccsc3)c2)c1 [Compound 228, 3-[(5-Thiophen-3-yl-pyridin-3-ylamino)-methyl]-phenol] |  |  | A (A: 50-90% inhibition at 10 μM enzyme concentration) | C (C: IC50 measured: <1 μM) | 50 to 90 |  |  |  | 
15 | Nc1cccc(-c2cncc(NCc3cccc(O)c3)c2)c1 [Compound 232, 3-{[5-(3-Amino-phenyl)-pyridin-3-ylamino]-methyl}-phenol] | > 90 | A (A: 50-90% inhibition at 10 μM enzyme concentration) | A (A: 50-90% inhibition at 10 μM enzyme concentration) | C (C: IC50 measured: <1 μM) | > 90 | > 90 | 50 to 90 |  | 
16 | Oc1cccc(CCNc2cncc(-c3cccc(O)c3)c2)c1 [Compound 244, 3-{5-[2-(3-Hydroxy-phenyl)-ethylamino]-pyridin-3-yl}-phenol] | 50 to 90 | B (B: >90% inhibition at 10 μM enzyme concentration) | A (A: 50-90% inhibition at 10 μM enzyme concentration) | C (C: IC50 measured: <1 μM) | 50 to 90 | 50 to 90 |  |  | 
17 | COC(=O)c1cccc(CNc2cncc(-c3cccc(O)c3)c2)c1 [Compound 264, 3-{[5-(3-Hydroxy-phenyl)-pyridin-3-ylamino]mθthyl}-benzoic acid methyl ester] |  | A (A: 50-90% inhibition at 10 μM enzyme concentration) | A (A: 50-90% inhibition at 10 μM enzyme concentration) | A (A: 50-90% inhibition at 10 μM enzyme concentration) |  |  |  | A (A: 50-90% inhibition at 10 μM enzyme concentration) | A (A: 50-90% inhibition at 10 μM enzyme concentration)
